Assay results as given in the C3SDB collision cross section collection.
Blank lines part the entries; values can stand above or below the compound they belong to.

What was measured:
[1] = instrument: TW, calibrated with polyalanine
[2] = instrument: DT, single field, calibrated with Agilent tune mix (Agilent)
[3] = instrument: DT, stepped-field

SMILES: Cn1cnc(C[C@H](N)C(=O)O)c1 [1-Methylhistidine]
collision cross section (N2) ([1]; [M+H]+): 129 Å²
collision cross section (N2) ([2]; [M+H]+): 133.1 Å²
collision cross section (N2) ([2]; [M-H]-): 139.64 Å²

SMILES: O=C(O)[C@H](O)COP(=O)(O)O [3-Phosphoglyceric acid]
collision cross section (N2) ([1]; [M+Na]+): 134 Å²

SMILES: O=C(O)[C@H](O)[C@@H](O)[C@H](O)[C@H](O)COP(=O)(O)O [6-Phosphogluconate]
collision cross section (N2) ([1]; [M+Na]+): 159 Å²

SMILES: Nc1ncnc2c1ncn2[C@@H]1O[C@H](COP(=O)(O)OP(=O)(O)O)[C@@H](O)[C@H]1O [ADP]
collision cross section (N2) ([1]; [M+H]+): 181 Å²

SMILES: NC(=O)c1ncn([C@@H]2O[C@H](CO)[C@@H](O)[C@H]2O)c1N [Acadesine]
collision cross section (N2) ([1]; [M+H]+): 152 Å²

SMILES: CC(=O)O[C@H](CC(=O)[O-])C[N+](C)(C)C [Acetylcarnitine]
collision cross section (N2) ([1]; [M+H]+): 142 Å²
collision cross section (N2) ([2]; [M+H]+): 143 Å²

SMILES: Nc1ncnc2nc[nH]c12 [Adenine]
collision cross section (N2) ([1]; [M+H]+): 119 Å²
collision cross section (N2) ([3]; [M+H]+): 127.9 Å²
collision cross section (N2) ([2]; [M+H]+): 125.1 Å²

SMILES: Nc1ncnc2c1ncn2[C@@H]1O[C@H](CO)[C@@H](O)[C@H]1O [Adenosine]
collision cross section (N2) ([1]; [M+H]+): 151 Å²
collision cross section (N2) ([3]; [M+H]+): 156.97 Å²
collision cross section (N2) ([3]; [M+Na]+): 170.07 Å²
collision cross section (N2) ([2]; [M+H]+): 155.7 Å²

SMILES: NC(=O)C[C@H](N)C(=O)O [Asparagine]
collision cross section (N2) ([1]; [M+H]+): 118 Å²

SMILES: Nc1ccn([C@@H]2O[C@H](COP(=O)(O)O)[C@@H](O)[C@H]2O)c(=O)n1 [CMP]
collision cross section (N2) ([1]; [M+H]+): 163 Å²

Results, then the compound that gave them:

collision cross section (N2) ([1]; [M+H]+): 113 Å²
SMILES: N[C@@H](CS)C(=O)O [Cysteine]

collision cross section (N2) ([1]; [M+H]+): 145 Å²
SMILES: N[C@@H](CSSC[C@H](N)C(=O)O)C(=O)O [Cystine]

collision cross section (N2) ([1]; [M+H]+): 148 Å²
collision cross section (N2) ([2]; [M+Na]+): 159.5 Å²
SMILES: Nc1ccn([C@@H]2O[C@H](CO)[C@@H](O)[C@H]2O)c(=O)n1 [Cytidine]

collision cross section (N2) ([1]; [M+H]+): 116 Å²
collision cross section (N2) ([2]; [M+H]+): 119.7 Å²
SMILES: CN(C)CC(=O)O [Dimethylglycine]

collision cross section (N2) ([1]; [M+Na]+): 202 Å²
SMILES: Nc1nc(=O)c2nc(CNc3ccc(C(=O)N[C@@H](CCC(=O)O)C(=O)O)cc3)cnc2[nH]1 [Folic acid]

collision cross section (N2) ([1]; [M+H]+): 196 Å²
SMILES: Nc1nc(=O)c2ncn([C@@H]3O[C@H](COP(=O)(O)OP(=O)(O)OP(=O)(O)O)[C@@H](O)[C@H]3O)c2[nH]1 [GTP]

collision cross section (N2) ([1]; [M+H]+): 123 Å²
SMILES: N[C@@H](CCC(=O)O)C(=O)O [Glutamic acid]

collision cross section (N2) ([1]; [M+H]+): 124 Å²
collision cross section (N2) ([3]; [M+H]+): 133.45 Å²
collision cross section (N2) ([3]; [M+Na]+): 138.11 Å²
SMILES: NC(=O)CC[C@H](N)C(=O)O [Glutamine]

collision cross section (N2) ([1]; [M+H]+): 160 Å²
collision cross section (N2) ([3]; [M+H]+): 165.02 Å²
collision cross section (N2) ([3]; [M+Na]+): 177.25 Å²
collision cross section (N2) ([2]; [M+Na]+): 174.6 Å²
SMILES: Nc1nc(=O)c2ncn([C@@H]3O[C@H](CO)[C@@H](O)[C@H]3O)c2[nH]1 [Guanosine]

collision cross section (N2) ([1]; [M+H]+): 127 Å²
SMILES: N[C@@H](Cc1cnc[nH]1)C(=O)O [Histidine]

collision cross section (N2) ([1]; [M+H]+): 124 Å²
collision cross section (N2) ([3]; [M+H]+): 130.53 Å²
SMILES: N[C@@H](CCS)C(=O)O [Homocysteine]

collision cross section (N2) ([1]; [M+H]+): 122 Å²
collision cross section (N2) ([2]; [M+H]+): 128.1 Å²
SMILES: O=C(O)[C@@H]1C[C@@H](O)CN1 [Hydroxyproline]

collision cross section (N2) ([1]; [M+H]+): 120 Å²
collision cross section (N2) ([3]; [M+H]+): 135.79 Å²
collision cross section (N2) ([3]; [M+Na]+): 138.88 Å²
collision cross section (N2) ([2]; [M+H]+): 127.1 Å²
SMILES: O=c1nc[nH]c2nc[nH]c12 [Hypoxanthine]

collision cross section (N2) ([1]; [M+H]+): 153 Å²
collision cross section (N2) ([3]; [M+H]+): 159.25 Å²
collision cross section (N2) ([3]; [M+Na]+): 175.37 Å²
collision cross section (N2) ([2]; [M+Na]+): 170.7 Å²
SMILES: O=c1nc[nH]c2c1ncn2[C@@H]1O[C@H](CO)[C@@H](O)[C@H]1O [Inosine]
